Experimental data as given in PubChem BioAssay AID1963862 (Molecular Pharmacology Branch, DTP, NCI, 2024).

Test system: KRAS patient-derived spheroids with HUVEC/MSC, viability
Experiment: Anticancer human tumor 941728-121-R-J1-PDC patient-derived lung adenocarcinoma cell line growth inhibition [KRAS2]
Details: for viability, T/C: stronger effect = lower value
In short: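 Combination screen of spheroid viability in tumor-cell co-cultures with endothelial (HUVEC) and mesenchymal stem cell stroma. Each agent was tested in half-log dilutions, topping at clinical Cmax or at 10 microM without a known Cmax.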

[1] = curve of first compound, second compound 0.1 µM
[2] = curve of first compound, second compound 0.316 µM
[3] = curve of first compound, second compound 1 µM
[4] = curve of first compound, second compound 3.16 µM
[5] = curve of first compound, second compound 10 µM
[6] = second compound 0.1 µM, first compound 0.0316 µM
[7] = second compound 0.1 µM, first compound 0.1 µM
[8] = second compound 0.1 µM, first compound 0.316 µM
[9] = second compound 0.1 µM, first compound 1 µM
[10] = second compound 0.1 µM, first compound 3.16 µM
[11] = second compound 0.1 µM, first compound 10 µM
[12] = second compound 0.316 µM, first compound 0.0316 µM
[13] = second compound 0.316 µM, first compound 0.1 µM
[14] = second compound 0.316 µM, first compound 0.316 µM
[15] = second compound 0.316 µM, first compound 1 µM
[16] = second compound 0.316 µM, first compound 3.16 µM
[17] = second compound 0.316 µM, first compound 10 µM
[18] = second compound 1 µM, first compound 0.0316 µM
[19] = second compound 1 µM, first compound 0.1 µM
[20] = second compound 1 µM, first compound 0.316 µM
[21] = second compound 1 µM, first compound 1 µM
[22] = second compound 1 µM, first compound 3.16 µM
[23] = second compound 1 µM, first compound 10 µM
[24] = second compound 3.16 µM, first compound 0.0316 µM
[25] = second compound 3.16 µM, first compound 0.1 µM
[26] = second compound 3.16 µM, first compound 0.316 µM
[27] = second compound 3.16 µM, first compound 1 µM
[28] = second compound 3.16 µM, first compound 3.16 µM
[29] = second compound 3.16 µM, first compound 10 µM
[30] = second compound 10 µM, first compound 0.0316 µM
[31] = second compound 10 µM, first compound 0.1 µM
[32] = second compound 10 µM, first compound 0.316 µM
[33] = second compound 10 µM, first compound 1 µM
[34] = second compound 10 µM, first compound 3.16 µM
[35] = second compound 10 µM, first compound 10 µM
[36] = second compound 0.1 µM, first compound 0.000316 µM
[37] = second compound 0.1 µM, first compound 0.001 µM
[38] = second compound 0.1 µM, first compound 0.00316 µM
[39] = second compound 0.1 µM, first compound 0.01 µM
[40] = second compound 0.316 µM, first compound 0.000316 µM
[41] = second compound 0.316 µM, first compound 0.001 µM
[42] = second compound 0.316 µM, first compound 0.00316 µM
[43] = second compound 0.316 µM, first compound 0.01 µM
[44] = second compound 1 µM, first compound 0.000316 µM
[45] = second compound 1 µM, first compound 0.001 µM
[46] = second compound 1 µM, first compound 0.00316 µM
[47] = second compound 1 µM, first compound 0.01 µM
[48] = second compound 3.16 µM, first compound 0.000316 µM
[49] = second compound 3.16 µM, first compound 0.001 µM
[50] = second compound 3.16 µM, first compound 0.00316 µM
[51] = second compound 3.16 µM, first compound 0.01 µM
[52] = second compound 10 µM, first compound 0.000316 µM
[53] = second compound 10 µM, first compound 0.001 µM
[54] = second compound 10 µM, first compound 0.00316 µM
[55] = second compound 10 µM, first compound 0.01 µM
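Further: spheroids exposed to agents for seven days before readout.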

Row | Compound | IC50 [1] [nM] | IC50 [2] [nM] | IC50 [3] [nM] | IC50 [4] [nM] | IC50 [5] [nM] | viability, T/C [6] [%] | viability, T/C [7] [%] | viability, T/C [8] [%] | viability, T/C [9] [%] | viability, T/C [10] [%] | viability, T/C [12] [%] | viability, T/C [13] [%] | viability, T/C [14] [%] | viability, T/C [15] [%] | viability, T/C [18] [%] | viability, T/C [19] [%] | viability, T/C [24] [%] | viability, T/C [25] [%] | viability, T/C [30] [%] | viability, T/C [31] [%] | other results
1 | COC(=O)c1ccc2c(C(=Nc3ccc(N(C)C(=O)CN4CCN(C)CC4)cc3)c3ccccc3)c(O)[nH]c2c1 + CNCc1ccccc1-c1csc(C(C)Nc2nc(C)nc3cc(OC)c(OC)cc23)c1 | 1740 | < 31.6 | < 31.6 | < 31.6 | < 31.6 | 59.9 | 49.5 | 47.1 | 63.4 | 42.4 | 46.4 | 44.1 | 41.5 | 35 | 22.6 | 24.5 | 0.42 | 0.43 | 0.47 | 0.1 | viability, T/C [11]: 35.8%; viability, T/C [16]: 9.64%; viability, T/C [17]: 20.3%; viability, T/C [20]: 19.5%; viability, T/C [21]: 25.6%; viability, T/C [22]: 3.56%; viability, T/C [23]: 5.39%; viability, T/C [26]: 0.22%; viability, T/C [27]: 0.73%; viability, T/C [28]: 0.79%; viability, T/C [29]: 0.62%; viability, T/C [32]: 0.08%; viability, T/C [33]: 0.1%; viability, T/C [34]: 0.11%; viability, T/C [35]: 0.15%
2 | CN(C)C/C=C/C(=O)Nc1cc2c(Nc3ccc(F)c(Cl)c3)ncnc2cc1O[C@H]1CCOC1 |  |  |  |  |  |  |  |  |  |  |  |  |  |  |  |  |  |  |  |  | viability, T/C (compound 0.000316 µM): 89.4% [middle of 5 runs]; viability, T/C (compound 0.001 µM): 78.7% [middle of 5 runs]; viability, T/C (compound 0.00316 µM): 63.7% [middle of 5 runs]; viability, T/C (compound 0.01 µM): 61.1% [middle of 5 runs]; viability, T/C (compound 0.0316 µM): 57.2% [middle of 5 runs]; viability, T/C (compound 0.1 µM): 62.2% [middle of 5 runs]; IC50 (curve of compound): > 100 nM
3 | CC(C)n1nc(-c2ccc3oc(N)nc3c2)c2c(N)ncnc21 + CC1OCC2(CCN(c3cnc(Sc4ccnc(N)c4Cl)c(N)n3)CC2)C1N | < 0.316 | < 0.316 | < 0.316 | < 0.316 | < 0.316 | 8.84 | 6.47 |  |  |  | 9.93 | 5.71 |  |  | 8.27 | 5.69 | 3.72 | 3.13 | 3.77 | 1.91 | viability, T/C [36]: 40.7%; viability, T/C [37]: 30.6%; viability, T/C [38]: 17.2%; viability, T/C [39]: 12.1%; viability, T/C [40]: 31%; viability, T/C [41]: 24.8%; viability, T/C [42]: 16.8%; viability, T/C [43]: 11.5%; viability, T/C [44]: 25.2%; viability, T/C [45]: 20.3%; viability, T/C [46]: 12%; viability, T/C [47]: 8.84%; viability, T/C [48]: 17.6%; viability, T/C [49]: 16.4%; viability, T/C [50]: 9.88%; viability, T/C [51]: 5.58%; viability, T/C [52]: 11.4%; viability, T/C [53]: 11.2%; viability, T/C [54]: 6.08%; viability, T/C [55]: 4.41%
4 | CC(C)n1nc(-c2ccc3oc(N)nc3c2)c2c(N)ncnc21 + C=CC(=O)N1CCN(c2nc(=O)n(-c3c(C)ccnc3C(C)C)c3nc(-c4c(O)cccc4F)c(F)cc23)C(C)C1 | < 0.316 | < 0.316 | < 0.316 | < 0.316 | < 0.316 | 4.43 | 3.9 |  |  |  | 4.02 | 3.22 |  |  | 4.43 | 5.61 | 6 | 6.12 | 11.3 | 11.2 | viability, T/C [36]: 13.2%; viability, T/C [37]: 17%; viability, T/C [38]: 8.16%; viability, T/C [39]: 5.92%; viability, T/C [40]: 13.8%; viability, T/C [41]: 11.7%; viability, T/C [42]: 10.2%; viability, T/C [43]: 6.98%; viability, T/C [44]: 15%; viability, T/C [45]: 11%; viability, T/C [46]: 9.95%; viability, T/C [47]: 7.7%; viability, T/C [48]: 14.2%; viability, T/C [49]: 16.4%; viability, T/C [50]: 13.3%; viability, T/C [51]: 9.65%; viability, T/C [52]: 17.3%; viability, T/C [53]: 16.8%; viability, T/C [54]: 16.5%; viability, T/C [55]: 15.2%
5 | CCNC(=O)CC1N=C(c2ccc(Cl)cc2)c2cc(OC)ccc2-n2c(C)nnc21 (configuration not stated) + CC1OCC2(CCN(c3cnc(Sc4ccnc(N)c4Cl)c(N)n3)CC2)C1N | < 31.6 | < 31.6 | < 31.6 | < 31.6 | < 31.6 | 45.2 | 44 | 31.5 | 24.1 | 21 | 37.2 | 32.5 | 25.5 | 17.2 | 32.3 | 27.5 | 25.7 | 20.9 | 22.3 | 19.1 | viability, T/C [11]: 22.4%; viability, T/C [16]: 14.8%; viability, T/C [17]: 16.2%; viability, T/C [20]: 30.4%; viability, T/C [21]: 13.2%; viability, T/C [22]: 10.3%; viability, T/C [23]: 8.97%; viability, T/C [26]: 17.8%; viability, T/C [27]: 10.3%; viability, T/C [28]: 8.12%; viability, T/C [29]: 6.43%; viability, T/C [32]: 12%; viability, T/C [33]: 6.42%; viability, T/C [34]: 4.77%; viability, T/C [35]: 4.55%
6 | CC(C)NCC(C(=O)N1CCN(c2ncnc3c2C(C)CC3O)CC1)c1ccc(Cl)cc1 (configuration not stated) + C=CC(=O)N1CCN(c2nc(=O)n(-c3c(C)ccnc3C(C)C)c3nc(-c4c(O)cccc4F)c(F)cc23)C(C)C1 | < 31.6 | < 31.6 | < 31.6 | < 31.6 | < 31.6 | 19.7 | 20.1 | 19.6 | 15.3 | 9.91 | 24.7 | 19.5 | 20 | 15.2 | 22.6 | 22.4 | 24.1 | 25.8 | 25.9 | 21.5 | viability, T/C [11]: 4.14%; viability, T/C [16]: 9.83%; viability, T/C [17]: 4.08%; viability, T/C [20]: 13.9%; viability, T/C [21]: 16%; viability, T/C [22]: 12%; viability, T/C [23]: 5.09%; viability, T/C [26]: 20.3%; viability, T/C [27]: 16%; viability, T/C [28]: 10.6%; viability, T/C [29]: 4.7%; viability, T/C [32]: 18.6%; viability, T/C [33]: 14.9%; viability, T/C [34]: 6.4%; viability, T/C [35]: 4.57%
7 | CC(=O)OC12COC1CC(O)C1(C)C(=O)C(O)C3=C(C)C(OC(=O)C(O)C(NC(=O)OC(C)(C)C)c4ccccc4)CC(O)(C(OC(=O)c4ccccc4)C21)C3(C)C (configuration not stated) + COc1cc2nc(C)nc(NC(C)c3cc(N)cc(C(F)(F)F)c3)c2cc1OC1CCOC1 | < 10 | < 10 | < 10 | < 10 | < 10 | 41.1 | 41.4 | 44.9 | 41.9 | 42.6 | 39.5 | 36 | 34.5 | 36.9 | 47.8 | 49.6 | 31.4 | 32 | 29.1 | 30 | viability, T/C [39]: 37.4%; viability, T/C [43]: 38.2%; viability, T/C [16]: 35.5%; viability, T/C [47]: 35.8%; viability, T/C [20]: 47.3%; viability, T/C [21]: 48%; viability, T/C [22]: 36.1%; viability, T/C [51]: 33.5%; viability, T/C [26]: 31.7%; viability, T/C [27]: 32.7%; viability, T/C [28]: 33.3%; viability, T/C [55]: 31.2%; viability, T/C [32]: 32.7%; viability, T/C [33]: 36.2%; viability, T/C [34]: 32.2%
